“And” between values parts separate entries of the source, which are not always exact repeats. Equal entries are not always repeated.

Sequence of Adenosine A2A receptor (P29274 whole entry): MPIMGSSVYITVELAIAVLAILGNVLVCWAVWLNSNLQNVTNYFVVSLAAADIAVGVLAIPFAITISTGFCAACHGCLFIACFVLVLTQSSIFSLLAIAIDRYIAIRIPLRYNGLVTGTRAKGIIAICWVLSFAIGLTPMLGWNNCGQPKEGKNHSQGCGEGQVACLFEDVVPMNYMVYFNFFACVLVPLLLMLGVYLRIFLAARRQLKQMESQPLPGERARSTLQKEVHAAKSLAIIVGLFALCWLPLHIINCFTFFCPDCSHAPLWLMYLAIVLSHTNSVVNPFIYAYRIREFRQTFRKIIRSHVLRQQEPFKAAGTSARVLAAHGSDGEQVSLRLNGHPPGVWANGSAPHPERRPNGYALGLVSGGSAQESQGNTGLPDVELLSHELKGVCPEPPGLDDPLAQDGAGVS

The first assay addresses Adenosine A2A receptor (Homo sapiens, UniProt P29274). Description: cAMP assay in 293A cells stably expressing the adenosine A2A receptor (CGS21680 stimulation, HTRF). The class given is cell-based. Details: expressed in transfected cells; host or cells: 293A cells (Invitrogen, Cat# R705-07) infected with A2A-expressing lentivirus (custom packaged by Biosettia), puromycin selected. Conditions: 293A-A2AR cells, 0.1% BSA, 8 nM CGS; values separated by / are repeat determinations; read-out: cAMP (nM) 0.1% BSA, 8 nM CGS. The protocol: A 293A cell line (Invitrogen, Cat# R705-07) stably expressing the adenosine A2A receptor was generated in house. Briefly, 293A cells were seeded in 6-well plate and infected with A2A expressing lentivirus (custom packaged by Biosettia) and selected with puromycin (1 ug/ml). Cells survived selection were confirmed for A2A expression by RT-qPCR (RT Reagent: High-Capacity cDNA Reverse Transcription Kit, Applied Biosystems/Thermo Fisher Cat# 4368814, qPCR reagent: SYBR™ Green Master Mix, Applied Biosystems/Thermo Fisher Cat# 4309155). The cells were maintained in DMEM/F12 medium containing 10% FBS, 100 units/ml Penicillin, 100 μg/ml Streptomycin, and 1 μg/ml puromycin at 37° C., 5% CO2. 293A-A2AR cells were harvested on the day of assay and resuspended at 0.6 million cells/ml in DMEM/F12 with 0.1% BSA and 30 U/ml denosine deaminase(Roche, Cat #: 10102121001). Serial dilutions of compounds were prepared in DMEM/F12 with 0.1% BSA to a DMSO concentration of 0.6%. After 4 μl of compound dilutions were added, 4 μl suspended cells were dispensed into low-volume white 384-well plates (Greiner Bio-One). […] The assay plate was then incubated at room temperature for 30 min. 3 μl of d2 conjugated cAMP and 3 μl cryptate conjugated anti-cAMP antibody were then added. D2 conjugated cAMP and cryptate conjugated anti-cAMP antibody (Cisbio, Cat #: 62AM6PEC) were both prepared in cell lysis buffer according to the manufacturer's instruction. After 1 h incubation at room temperature, plates were read in CIARIOstar plate reader (BMG Labtech) using the HTRF detection mode.
(Cyclic AMP is a second messenger, typically raised through Gs and lowered through Gi signalling.)
Take `CC(=O)Nc1ccc(CCOc2nc(N)nc(-c3ccccc3)c2-c2cc(C)nc(C(F)(F)F)c2)cc1` [Example 9, N-(4-(2-((2-amino-5-(2-methyl-6-(trifluoromethyl)pyridin-4-yl)-6-phenylpyrimidin-4-yl)oxy)ethyl)phenyl)acetamide]: the IC50 was 5.7 nM and 14 nM. With `Cc1cc(-c2c(OCCN(C)c3ncccn3)nc(N)nc2-c2ccc(F)cc2)cc(C(F)F)n1` [Example 145, 5-(2-(difluoromethyl)-6-methylpyridin-4-yl)-4-(4-fluorophenyl)-6-(2-(methyl(pyrimidin-2-yl)amino)ethoxy)pyrimidin-2-amine], the IC50 is 0.9 nM and 1.2 nM.

The same assay, now with this note: 293A-A2AR cells, 0.1% BSA, 1 uM CGS; read-out: cAMP (nM) 0.1% BSA, 1 uM CGS.
For `Cc1cc(-c2c(OCCOC(C)(C)C(=O)O)nc(N)nc2-c2ccc(F)cc2)cc(C(F)F)n1` [Example 226], the IC50 was more than 2500 nM. Same read-out and setting: the result for `Cc1cc(-c2c(OCc3ccnn3CC3CC3)nc(N)nc2-c2ccc(F)cc2)cc(C(F)F)n1` [Example 229, 4-((1-(cyclopropylmethyl)-1H-pyrazol-5-yl)methoxy)-5-(2-(difluoromethyl)-6-methylpyridin-4-yl)-6-(4-fluorophenyl)pyrimidin-2-amine] reads 107 nM; that for `CCc1nn(CC(=O)O)nc1COc1nc(N)nc(-c2ccc(F)cc2)c1-c1cc(C)nc(C(F)F)c1` [Example 231, 2-(4-(((2-amino-5-(2-(difluoromethyl)-6-methylpyridin-4-yl)-6-(4-fluorophenyl)pyrimidin-4-yl)oxy)methyl)-5-ethyl-2H-1,2,3-triazol-2-yl)acetic acid], more than 25000 nM; that for `CCc1c(COc2nc(N)nc(-c3ccc(F)cc3)c2-c2cc(C)nc(C(F)F)c2)nnn1CC(=O)O` [Example 232, 2-(4-(((2-amino-5-(2-(difluoromethyl)-6-methylpyridin-4-yl)-6-(4-fluorophenyl)pyrimidin-4-yl)oxy)methyl)-5-ethyl-1H-1,2,3-triazol-1-yl)acetic acid], 4510 nM.

Turning to `CCc1nnn(CC(=O)O)c1COc1nc(N)nc(-c2ccc(F)cc2)c1-c1cc(C)nc(C(F)F)c1` [Example 233, 2-(5-(((2-amino-5-(2-(difluoromethyl)-6-methylpyridin-4-yl)-6-(4-fluorophenyl)pyrimidin-4-yl)oxy)methyl)-4-ethyl-1H-1,2,3-triazol-1-yl)acetic acid], the IC50 was 16300 nM. In the case of `Cc1cc(-c2c(OCc3nncn3CC3CC3)nc(N)nc2-c2ccc(F)cc2)cc(C(F)F)n1` [Example 234], the IC50 was 647 nM.

Turning to `CCN1C(=O)OCC1COc1nc(N)nc(-c2ccc(F)cc2)c1-c1cc(C)nc(C(F)F)c1` (centres unmarked) [Example 235, 4-(((2-amino-5-(2-(difluoromethyl)-6-methylpyridin-4-yl)-6-(4-fluorophenyl)pyrimidin-4-yl)oxy)methyl)-3-ethyloxazolidin-2-one], the IC50 worked out at 3710 nM.

Take `Cc1cc(-c2c(OCc3nccn3CC(C)(C)O)nc(N)nc2-c2cccc(C#N)c2C)cc(C(F)F)n1` [Example 236, 3-(2-amino-5-(2-(difluoromethyl)-6-methylpyridin-4-yl)-6-((1-(2-hydroxy-2-methylpropyl)-1H-imidazol-2-yl)methoxy)pyrimidin-4-yl)-2-methylbenzonitrile]: the IC50 is more than 25000 nM. As for `CCn1nnc(COc2nc(N)nc(-c3cccc(C#N)c3C)c2-c2cc(C)nc(C(F)F)c2)n1` [Example 237, 3-(2-amino-5-(2-(difluoromethyl)-6-methylpyridin-4-yl)-6-((2-ethyl-2H-tetrazol-5-yl)methoxy)pyrimidin-4-yl)-2-methylbenzonitrile], the IC50 was determined as 2120 nM.

For the compound `CCn1cnc(COc2nc(N)nc(-c3cccc(C#N)c3C)c2-c2cc(C)nc(C(F)F)c2)n1` [Example 239, 3-(2-amino-5-(2-(difluoromethyl)-6-methylpyridin-4-yl)-6-((1-ethyl-1H-1,2,4-triazol-3-yl)methoxy)pyrimidin-4-yl)-2-methylbenzonitrile], the IC50 is 7920 nM. Turning to `Cc1cc(-c2c(OCc3ccncn3)nc(N)nc2-c2cccc(C#N)c2C)cc(C(F)F)n1` [Example 240, 3-(2-amino-5-(2-(difluoromethyl)-6-methylpyridin-4-yl)-6-(pyrimidin-4-ylmethoxy)pyrimidin-4-yl)-2-methylbenzonitrile], the IC50 was determined as 17000 nM. Same read-out and setting: in the case of `Cc1cc(-c2c(OCc3nnn(CC(C)(C)O)n3)nc(N)nc2-c2ccc(F)cc2)cc(C(F)F)n1` [Example 242, 1-(5-(((2-amino-5-(2-(difluoromethyl)-6-methylpyridin-4-yl)-6-(4-fluorophenyl)pyrimidin-4-yl)oxy)methyl)-2H-tetrazol-2-yl)-2-methylpropan-2-ol] it was 2020 nM; in that of `CCn1nccc1COc1nc(N)nc(-c2cccc(C#N)c2C)c1-c1cc(C)nc(C(F)F)c1` [Example 243, 3-(2-amino-5-(2-(difluoromethyl)-6-methylpyridin-4-yl)-6-((1-ethyl-1H-pyrazol-5-yl)methoxy)pyrimidin-4-yl)-2-methylbenzonitrile], 2950 nM; in that of `CCn1ccc(COc2nc(N)nc(-c3cccc(C#N)c3C)c2-c2cc(C)nc(C(F)F)c2)n1` [Example 244, 3-(2-amino-5-(2-(difluoromethyl)-6-methylpyridin-4-yl)-6-((1-ethyl-1H-pyrazol-3-yl)methoxy)pyrimidin-4-yl)-2-methylbenzonitrile], 756 nM. The same measure, in the same setting: in the case of `Cc1cc(-c2c(OCCCCO)nc(N)nc2-c2ccc(F)cc2)cc(C(F)F)n1` [Example 245, 4-((2-amino-5-(2-(difluoromethyl)-6-methylpyridin-4-yl)-6-(4-fluorophenyl)pyrimidin-4-yl)oxy)butan-1-ol] it was 265 nM; in that of `Cc1cc(-c2c(OCCN(C)c3cccnn3)nc(N)nc2-c2cccc(C#N)c2C)cc(C(F)F)n1` [Example 246, 3-(2-amino-5-(2-(difluoromethyl)-6-methylpyridin-4-yl)-6-(2-(methyl(pyridazin-3-yl)amino)ethoxy)pyrimidin-4-yl)-2-methylbenzonitrile], 981 nM; in that of `Cc1cc(-c2c(OCCN(C)c3cccc(OCC(=O)O)n3)nc(N)nc2-c2ccc(F)cc2)cc(C(F)F)n1` [Example 248, 2-((6-((2-((2-amino-5-(2-(difluoromethyl)-6-methylpyridin-4-yl)-6-(4-fluorophenyl)pyrimidin-4-yl)oxy)ethyl)(methyl)amino)pyridin-2-yl)oxy)acetic acid], 552 nM and 742 nM and 1100 nM. Regarding `Cc1cc(-c2c(OCc3nccn3CC(=O)O)nc(N)nc2-c2ccc(F)cc2)cc(C(F)F)n1` [Example 249, 2-(2-(((2-amino-5-(2-(difluoromethyl)-6-methylpyridin-4-yl)-6-(4-fluorophenyl)pyrimidin-4-yl)oxy)methyl)-1H-imidazol-1-yl)acetic acid], the IC50 is 7240 nM. Take `Cc1cc(-c2c(OCCC(C)(C)C(=O)O)nc(N)nc2-c2cccc(C#N)c2C)cc(C(F)F)n1` [Example 250, 4-((2-amino-6-(3-cyano-2-methylphenyl)-5-(2-(difluoromethyl)-6-methylpyridin-4-yl)pyrimidin-4-yl)oxy)-2,2-dimethylbutanoic acid]: the IC50 was 8570 nM.

Turning to `CCc1nn(CC(C)(C)O)nc1COc1nc(N)nc(-c2ccc(F)cc2)c1-c1cc(C)nc(C(F)F)c1` [Example 251, 1-(4-(((2-amino-5-(2-(difluoromethyl)-6-methylpyridin-4-yl)-6-(4-fluorophenyl)pyrimidin-4-yl)oxy)methyl)-5-ethyl-2H-1,2,3-triazol-2-yl)-2-methylpropan-2-ol], the IC50 was found to be 1280 nM. With `CCc1c(COc2nc(N)nc(-c3ccc(F)cc3)c2-c2cc(C)nc(C(F)F)c2)nnn1CC(C)(C)O` [Example 252, 1-(4-(((2-ainino-5-(2-(difluoromethyl)-6-methylpyridin-4-yl)-6-(4-fluorophenyl)pyrimidin-4-yl)oxy)methyl)-5-ethyl-1H-1,2,3-triazol-1-yl)-2-methylpropan-2-ol], the IC50 came out at 1260 nM. Turning to `CCc1nnn(CC(C)(C)O)c1COc1nc(N)nc(-c2ccc(F)cc2)c1-c1cc(C)nc(C(F)F)c1` [Example 253, 1-(5-(((2-amino-5-(2-(difluoromethyl)-6-methylpyridin-4-yl)-6-(4-fluorophenyl)pyrimidin-4-yl)oxy)methyl)-4-ethyl-1H-1,2,3-triazol-1-yl)-2-methylpropan-2-ol], the IC50 was found to be 2150 nM.

The assay is the same for the next values; noted with them: 293A-A2AR cells, 0.1% BSA, 1 uM CGS; values separated by / are repeat determinations; read-out: cAMP (nM) 0.1% BSA, 1 uM CGS.
With `Cc1cc(-c2c(OCCN(C)c3ncccn3)nc(N)nc2-c2ccc(F)cc2)cc(C(F)F)n1` [Example 145, 5-(2-(difluoromethyl)-6-methylpyridin-4-yl)-4-(4-fluorophenyl)-6-(2-(methyl(pyrimidin-2-yl)amino)ethoxy)pyrimidin-2-amine], the IC50 was found to be 123 nM. As for `Cc1cc(-c2c(OCCN(C)c3ccncn3)nc(N)nc2-c2ccc(F)cc2)cc(C(F)F)n1` [Example 151, 5-(2-(difluoromethyl)-6-methylpyridin-4-yl)-4-(4-fluorophenyl)-6-(2-(methyl(pyrimidin-4-yl)amino)ethoxy)pyrimidin-2-amine], the IC50 is more than 25000 nM.
